This is an account of results in patent US8187822B2, “Methods to identify modulators” (Givaudan S.A., priority 2007, dated 2012).

For experiment [1], the system named is bitter-sensitive panelists. The experiment can be described thus: Sensory evaluation of bitter blocking in sucralose solution (forced choice). It is filed as in vivo, human. The settings on record: for perceived bitterness of sucralose, in words: 13 ppm in 3 mM sucralose solution. As to the method:
The bitter blocking capability of test cpd A (13 ppm) in sucralose (3 mM) solution was evaluated. Twenty ml of each solution (sucralose or sucralose with test cpd A) was presented in random order to 15 bitter-sensitive panelists. In two replications, panelists were asked to select the solution they perceived as more bitter. A beta-binomial analysis was calculated from the forced-choice data to correct for overdispersion. Because panelists evaluated bitterness over 2 replications, the data was subjected to a beta-binomial d′ analysis to determine whether over-dispersion occurred. Not accounting for over-dispersion has the potential to underestimate the significance level at which a test is conducted and therefore lead to false-positive results. The analysis refuted overdispersion (gamma=0.00; p=0.109) and no adjustments were necessary.

The target of a further experiment is T1, TAS2R10 (Homo sapiens, UniProt Q9NYW0).
T1 construct: The full length gene of human TAS2R44 was amplified by polymerase chain reaction (PCR) using gene-specific primers that span the entire coding region; RSS tag (first 45 amino acids of rat somatostatin receptor subtype 3) (N); expressed in transfected cells
T1 sequence (Q9NYW0 1-307): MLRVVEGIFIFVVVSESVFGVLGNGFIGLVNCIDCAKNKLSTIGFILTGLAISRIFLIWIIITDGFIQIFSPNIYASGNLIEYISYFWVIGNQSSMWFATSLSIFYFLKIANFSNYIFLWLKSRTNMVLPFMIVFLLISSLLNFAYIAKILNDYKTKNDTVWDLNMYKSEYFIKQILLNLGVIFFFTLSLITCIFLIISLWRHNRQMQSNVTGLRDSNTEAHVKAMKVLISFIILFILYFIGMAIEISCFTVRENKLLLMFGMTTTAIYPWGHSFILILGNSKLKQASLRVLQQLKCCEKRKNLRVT
In words: Fluo-4 calcium assay, HEK293T cells stably expressing Gα16-gustducin44 and TAS2R10. It is filed as cell-based.

For `CC1=CCC(C/C=C/C(=O)O)C1(C)C` (centres unmarked) [test cpd A, (E)-4-(2,2,3-trimethylcyclopent-3-enyl)but-2-enoic acid], the “perceived bitterness of sucralose, in words” value in experiment [1] is reported as “reduced the perceived bitterness”; in experiment [1] (listed as (E)-4-(2,2,3-trimethylcyclopent-3-enyl)but-2-enoic acid), “significantly reduce the bitter aftertaste of sucralose”. Moreover, in experiment [1] (13 ppm in 3 mM sucralose, 15 panelists, 2 replications, p<0.05), the “evaluations selecting the solution with test compound as less bitter than 3 mM sucralose solution” value is reported as 22 of 30. The “d′” value in experiment [1] (13 ppm in 3 mM sucralose, forced choice) came to 0.88±0.12.

Consider `OC[C@H]1O[C@H](O[C@]2(CCl)O[C@H](CCl)[C@@H](O)[C@@H]2O)[C@H](O)[C@@H](O)[C@H]1Cl` [Sucralose, sucralose], for which, on TAS2R10, the “calcium signaling in TAS2R10 cells, in words” value is on record as “significant concentration-dependent increase in calcium signaling”. The “TAS2R10 ΔF/F0” value at TAS2R10 (sucralose 0.3906 mM) is listed as 0.050; at TAS2R10 (sucralose 0.7813 mM), 0.050; at TAS2R10 (sucralose 1.5625 mM), 0.047; at TAS2R10 (sucralose 3.1250 mM), 0.053; at TAS2R10 (sucralose 6.2500 mM), 0.053; on TAS2R10 (sucralose 12.5000 mM), 0.059. The “TAS2R10 ΔF/F0” value at TAS2R10 (sucralose 25.0000 mM) came out at 0.087; at TAS2R10 (sucralose 50.0000 mM) it was 0.212; at TAS2R10 (sucralose 100.0000 mM), 0.437.
